Earlier results on one compound are cited in PubChem BioAssay AID1259409 (Chemical Carcinogenesis Research Information System (CCRIS), 2018).

In the data set the test system is rodent chemically induced tumor inhibition, incidence and multiplicity. Briefly: CCRIS tumor inhibitor studies.

With `COc1cc(/C=C/C(=O)CC(=O)/C=C/c2ccc(O)c(OC)c2)ccc1O`, the “tumour outcome (control, treated, inhibition, significance)” value reads like this: (Carcinogen: 1,2-DIMETHYLHYDRAZINE [540-73-8], Species: RAT, Strain/Sex: WISTAR, Target Tissue: Type of Lesion: COLON, Dose [Carcinogen]: 20 MG/KG) 81.3%, 61%, 25%, p<0.05; (Carcinogen: 2,2'-DIHYDROXY-DI-N-PROPYLNITROSAMINE, 53609-64-6, N-ETHYL-N-HYDROXYETHYLNITROSAMINE, 13147-25-6, 3,2'-DIMETHYL-1,4-, Carcinogen: 2,2'-DIHYDROXY-DI-N-PROPYLNITROSAMINE, 53609-64-6, N-ETHYL-N-HYDROXYETHYLNITROSAMINE, 13147-25-6, 3,2'-DIMETHYL-1,4-, Dose [Inhibitor]: 0, 1% IN DIET FOR 4 WK BEGINNING 1 D PRIOR TO FIRST CARCINOGEN DOSE (STUDY DURATION: 36 WK), Route [Inhibitor]: ORAL, Species: RAT, Strain/Sex: F344/MALE, Target Tissue: Type of Lesion: KIDNEY: ADENOMA, Dose [Carcinogen]: 1000 MG/KG BW DHPN TWICE, 1500 MG/KG EHEN TWICE, 75 MG/KG BW DMAB 3 TIMES, SEQUENTIALLY OVER 3 WK, Promoter: NONE USED) 6/10 (60%), 6/13 (46%), 23%, not significant; (Carcinogen: 2,2'-DIHYDROXY-DI-N-PROPYLNITROSAMINE, 53609-64-6, N-ETHYL-N-HYDROXYETHYLNITROSAMINE, 13147-25-6, 3,2'-DIMETHYL-1,4-, Carcinogen: 2,2'-DIHYDROXY-DI-N-PROPYLNITROSAMINE, 53609-64-6, N-ETHYL-N-HYDROXYETHYLNITROSAMINE, 13147-25-6, 3,2'-DIMETHYL-1,4-, Dose [Inhibitor]: 0, 1% IN DIET FOR 4 WK BEGINNING 1 D PRIOR TO FIRST CARCINOGEN DOSE (STUDY DURATION: 36 WK), Route [Inhibitor]: ORAL, Species: RAT, Strain/Sex: F344/MALE, Target Tissue: Type of Lesion: LUNG: ADENOMA, Dose [Carcinogen]: 1000 MG/KG BW DHPN TWICE, 1500 MG/KG EHEN TWICE, 75 MG/KG BW DMAB 3 TIMES, SEQUENTIALLY OVER 3 WK, Promoter: NONE USED) 5/10 (50%), 10/13 (77%), -54%, not significant; (Carcinogen: 4-NITROQUINOLINE-1-OXIDE, 56-57-5, Dose [Inhibitor]: 0, 500 PPM IN DIET FOR 10 WK BEGINNING 1 WK PRIOR TO CARCINOGEN TREATMENT (STUDY DURATION: 32 WK), Route [Inhibitor]: ORAL, Species: RAT, Strain/Sex: F344/MALE, Target Tissue: Type of Lesion: TONGUE: CARCINOMA, Dose [Carcinogen]: 20 PPM IN DRINKING WATER FOR 8 WK, Promoter: NONE USED) 13/24 (54%), 1/19 (5%), 91%, p<0.05; (Carcinogen: 4-NITROQUINOLINE-1-OXIDE, 56-57-5, Dose [Inhibitor]: 0, 500 PPM IN DIET FOR 10 WK BEGINNING 1 WK PRIOR TO CARCINOGEN TREATMENT (STUDY DURATION: 32 WK), Route [Inhibitor]: ORAL, Species: RAT, Strain/Sex: F344/MALE, Target Tissue: Type of Lesion: TONGUE: PAPILLOMA, Dose [Carcinogen]: 20 PPM IN DRINKING WATER FOR 8 WK, Promoter: NONE USED) 4/24 (17%), 0/19 (0%), 100%, not significant; (Carcinogen: 4-NITROQUINOLINE-1-OXIDE, 56-57-5, Dose [Inhibitor]: 0, 500 PPM IN DIET FOR 22 WK BEGINNING 1 WK POST CARCINOGEN TREATMENT (STUDY DURATION: 32 WK), Route [Inhibitor]: ORAL, Species: RAT, Strain/Sex: F344/MALE, Target Tissue: Type of Lesion: TONGUE: CARCINOMA, Dose [Carcinogen]: 20 PPM IN DRINKING WATER FOR 8 WK, Promoter: NONE USED) 13/24 (54%), 3/20 (15%), 72%, p<0.05. The “tumour outcome (control, treated, inhibition, significance)” value is listed as 4/24 (17%), 2/20 (10%), 41%, not significant (Carcinogen: 4-NITROQUINOLINE-1-OXIDE, 56-57-5, Dose [Inhibitor]: 0, 500 PPM IN DIET FOR 22 WK BEGINNING 1 WK POST CARCINOGEN TREATMENT (STUDY DURATION: 32 WK), Route [Inhibitor]: ORAL, Species: RAT, Strain/Sex: F344/MALE, Target Tissue: Type of Lesion: TONGUE: PAPILLOMA, Dose [Carcinogen]: 20 PPM IN DRINKING WATER FOR 8 WK, Promoter: NONE USED); 20/20 (100%), 5/20 (25%), 75%, p<0.001 (Carcinogen: 7,12-DIMETHYLBENZ[A]ANTHRACENE, 57-97-6, Dose [Inhibitor]: 0: 5% IN DIET FOR DURATION OF STUDY BEGINNING 2 WK PRIOR TO CARCINOGEN DOSE (STUDY DURATION: 6 MO), Route [Inhibitor]: ORAL, Species: RAT, Strain/Sex: WISTAR/FEMALE, Target Tissue: Type of Lesion: MAMMARY GLAND: TUMOR, Dose [Carcinogen]: 10 MG IN PEANUT OIL INJECTED INTO SUBCUTANEOUS POUCH CREATED IN THE 5TH AND 6TH MAMMARY GLAND REGION, Promoter: NONE USED); 45%, 21%, 53%, p<0.05 (Carcinogen: 7,12-DIMETHYLBENZ[A]ANTHRACENE, 57-97-6, Dose [Inhibitor]: 0, 2% IN DIET FOR 22 WK BEGINNING 2 WK PRIOR TO CARCINOGEN DOSE (STUDY DURATION: 22 WK), Route [Inhibitor]: ORAL, Species: MOUSE, Strain/Sex: SENCAR/FEMALE, Target Tissue: Type of Lesion: LYMPHATIC SYSTEM:LYMPHOMA OR LEUKEMIA, Dose [Carcinogen]: 1 MG IN 0.1 ML CORN OIL 1/WK FOR 5 WK, Promoter: NONE USED); 68%, 78%, -15%, not significant (Carcinogen: 7,12-DIMETHYLBENZ[A]ANTHRACENE, 57-97-6, Dose [Inhibitor]: 0, 2% IN DIET FOR 22 WK BEGINNING 2 WK PRIOR TO CARCINOGEN DOSE (STUDY DURATION: 22 WK), Route [Inhibitor]: ORAL, Species: MOUSE, Strain/Sex: SENCAR/FEMALE, Target Tissue: Type of Lesion: MAMMARY GLAND: TUMOR, Dose [Carcinogen]: 1 MG IN 0.1 ML CORN OIL 1/WK FOR 5 WK, Promoter: NONE USED); 20%, 8%, 60%, p<0.1 (Carcinogen: 7,12-DIMETHYLBENZ[A]ANTHRACENE, 57-97-6, Dose [Inhibitor]: 0, 2% IN DIET FOR 22 WK BEGINNING 2 WK PRIOR TO CARCINOGEN DOSE (STUDY DURATION: 22 WK), Route [Inhibitor]: ORAL, Species: MOUSE, Strain/Sex: SENCAR/FEMALE, Target Tissue: Type of Lesion: OVARY:TUMOR, Dose [Carcinogen]: 1 MG IN 0.1 ML CORN OIL 1/WK FOR 5 WK, Promoter: NONE USED); 100%, 98%, 2%, not calculated (Carcinogen: 7,12-DIMETHYLBENZ[A]ANTHRACENE, 57-97-6, Dose [Inhibitor]: 0, 3 UMOL IN ACETONE 1/WK FOR 10 WK APPLIED 5 MIN PRIOR TO EACH CARCINOGEN DOSE (STUDY DURATION: 26 WK), Route [Inhibitor]: DERMAL, Species: MOUSE, Strain/Sex: CD-1/FEMALE, Target Tissue: Type of Lesion: SKIN: TUMORS, Dose [Carcinogen]: 2 NMOL 1/WK FOR 10 WK, Promoter: 12-O-TETRADECANOYLPHORBOL-13-ACETATE, 16561-29-8). Moreover, the “tumour outcome (control, treated, inhibition, significance)” value reads like this: (Carcinogen: 7,12-DIMETHYLBENZ[A]ANTHRACENE, 57-97-6, Dose [Inhibitor]: 0, 10 UMOL IN ACETONE 1/WK FOR 10 WK APPLIED 5 MIN PRIOR TO EACH CARCINOGEN DOSE (STUDY DURATION: 26 WK), Route [Inhibitor]: DERMAL, Species: MOUSE, Strain/Sex: CD-1/FEMALE, Target Tissue: Type of Lesion: SKIN: TUMORS, Dose [Carcinogen]: 2 NMOL 1/WK FOR 10 WK, Promoter: 12-O-TETRADECANOYLPHORBOL-13-ACETATE, 16561-29-8) 100%, 98%, 2%, not calculated; (Carcinogen: 7,12-DIMETHYLBENZ[A]ANTHRACENE, 57-97-6, Dose [Inhibitor]: 10 UMOL IN 200 µL ACETONE 2/WK FOR 19 WK BEGINNING 1 WK POST CARCINOGEN DOSE (STUDY DURATION: 20 WK), Route [Inhibitor]: DERMAL, Species: MOUSE, Strain/Sex: CD-1/FEMALE, Target Tissue: Type of Lesion: SKIN: PAPILLOMA, Dose [Carcinogen]: 200 NMOL IN 200 µL ACETONE ONCE, Promoter: 12-O-TETRADECANOYLPHORBOL-13-ACETATE, 16561-29-8) 68%, 0%, 100%, not calculated.
